Experimental data: US20050129662A1 (priority 2002, published 2005)

Legend:
Assay type in all cases: in vivo
Panonychus ulmi = experiment: Open-field fight against Panonychus ulmi on muscat vine (Examples 8-10); conditions: 1 intervention
Excerpt: (§1) All tables and related theses reproduced herein result from an experimental activity carried out in the open field following precise protocols and experimental guidelines.
(§2) The aim of this experimental activity was that of verifying the possibility of reducing the amount of the chemical formulation employed, while keeping the activity of same unchanged towards adversities to be fought (peronospora, mildew and Panonychus ulmi), thanks to addition of the adjuvant, preferably soybean oil.
(§3) The methodologies for detection of the efficiency results were selected depending on: the pathology to be fought, infection, % spreading of the disease for peronospora, mildew and acid rot, and depending on the count of the mite number per leaf in the fight tests against Panonychus ulmi.
(§4) Among the great number of statistical tests interpreting the experimental data items, Duncan test in the scientific field is considered as one of the best evaluation instruments for significance of the experimental data items. […] Example: 12.5a 0.9b 0.3b

[1] = system: peronospora (Plasmopara viticola); experiment: Open-field fight against peronospora on muscat vine (Examples 2-6); conditions: 11 interventions
Excerpt: as §1, §2, §3, §4

Lactuga sativa = experiment: Composite chemical weedkilling, spraying on trays of lettuce plants (Examples 12-15); conditions: 1 intervention; for % devitalization T + 14: 14 days from treatment; for % devitalization T + 27: 27 days from treatment
Excerpt: • Treatment: 300 l/ha of solution were sprayed • Experimental pattern: spraying on 4 trays, each containing 8 lettuce plants • Flower survey: carried out after 14 days from treatment (T), (T+14), and after 27 days (T+27), stating the devitalization degree in percentage
Test target: Composite chemical weedkilling (Lactuga sativa)
With reference to the active ingredients employed in examples 12-15, it was an aim of this experimental research to verify the influence of the emulsion addition on the herbicide activity towards a target weed belonging to the compositae family. By virtue of the high herbicide activity of weedkillers, when applied in the amounts on the label, and in order to highlight possible efficiency variations of same among the different theses dealt with, all active ingredients were employed alone in amounts reduced by ⅓ and reduced by ⅓ in an extemporaneous mixture with the emulsion being the object of the present invention. Example: should the active ingredients have been employed to the amounts reproduced on the label, it would have been very likely to obtain a 100% devitalization of the weed with the active ingredient alone and in a mixture with the emulsion.
As to the methodologies for efficiency detection, a visual estimation was selected, by allocating a % value to the overall devitalizing activity observed on the target plant.

[2] = system: mildew (Uncinula necator); conditions: muscat vine; 4795 g or ml/ha; 6 interventions

`CCc1nn(C)c(C(=O)NCc2ccc(C(C)(C)C)cc2)c1Cl` [Tebufenpyrad] was tested, and the “Action Degree” value (Panonychus ulmi; 125 g or ml/ha) was 80.8, the “Mites per leaf 1” value (Panonychus ulmi; 125 g or ml/ha) was 0.4 b and the “Mites per leaf 2” value (Panonychus ulmi; 125 g or ml/ha) was 1.1 b.
For `COc1ccc(C(=CC(=O)N2CCOCC2)c2ccc(Cl)cc2)cc1OC` [Dimethomorph], the “% infection on bunches” value ([1]; 1050 g or ml/ha) was 0.0 b %, the “% spreading on bunches” value ([1]; 1050 g or ml/ha) was 0.0 b % and the “Action Degree” value ([1]; 1050 g or ml/ha) was 100.
For `C[C@@H]1[C@@H](c2ccc(Cl)cc2)SC(=O)N1C(=O)NC1CCCCC1` [Hexythiazox], the “Action Degree” value (Panonychus ulmi; f.c. 30 g or ml/ha) was 91.6, the “Mites per leaf 1” value (Panonychus ulmi; f.c. 30 g or ml/ha) was 0.0 b and the “Mites per leaf 2” value (Panonychus ulmi; f.c. 30 g or ml/ha) was 0.6 b.
In the case of `CO/C=C(/C(=O)OC)c1ccccc1Oc1cc(Oc2ccccc2C#N)ncn1` [Azoxystrobin], the “% infection on bunches” value ([1]; 250 g or ml/ha) is reported as 0.0 b %, the “% spreading on bunches” value ([1]; 250 g or ml/ha) is reported as 0.0 b % and the “Action Degree” value ([1]; 250 g or ml/ha) is reported as 100.
With `O=C1c2ccccc2C(=O)N1SC(Cl)(Cl)Cl` [Folpet] the “% infection on bunches” value ([1]; 1200 g or ml/ha) was 0.0 b %, the “% spreading on bunches” value ([1]; 1200 g or ml/ha) was 0.0 b % and the “Action Degree” value ([1]; 1200 g or ml/ha) was 100.
For `CCCCCCCC(=O)Oc1c(Br)cc(C#N)cc1Br` [Bromoxynil octanoate], the “% devitalization T + 14” value (Lactuga sativa; 356 g or ml/ha) was 56.0% and the “% devitalization T + 27” value (Lactuga sativa; 356 g or ml/ha) was 67.5%.
`O=C(NC(=O)c1c(F)cccc1F)Nc1ccc(Oc2ccc(C(F)(F)F)cc2Cl)cc1F` [Flufenoxuron] was tested, and the “Action Degree” value (Panonychus ulmi; 50 g or ml/ha) was 68.0, the “Mites per leaf 1” value (Panonychus ulmi; 50 g or ml/ha) was 1.1 b and the “Mites per leaf 2” value (Panonychus ulmi; 50 g or ml/ha) was 3.0 b.
Mancozeb was tested, and the “% infection on bunches” value ([1]; 1470 g or ml/ha) was 0.2 b %, the “% spreading on bunches” value ([1]; 1470 g or ml/ha) was 0.3 b % and the “Action Degree” value ([1]; 1470 g or ml/ha) was 97.4.
For `O=C(O)c1nc(Cl)ccc1Cl` [Clopyradil], the “% devitalization T + 14” value (Lactuga sativa; 100 g or ml/ha) was 85.0% and the “% devitalization T + 27” value (Lactuga sativa; 100 g or ml/ha) was 87.5%.
For `O=C(O)CNCP(=O)(O)O` [Gliphosate], the “% devitalization T + 14” value (Lactuga sativa; 360 g or ml/ha) was 32.0% and the “% devitalization T + 27” value (Lactuga sativa; 360 g or ml/ha) was 90.0%.
With `O=c1[nH]c2c(c(=O)n1C1CCCCC1)CCC2` [Lenacil] the “% devitalization T + 14” value (Lactuga sativa; 150 g or ml/ha) was 11.0% and the “% devitalization T + 27” value (Lactuga sativa; 150 g or ml/ha) was 30.0%.
With Fosetyl-Aluminium the “% infection on bunches” value ([1]; 960 g or ml/ha) was 0.3 b %, the “% spreading on bunches” value ([1]; 960 g or ml/ha) was 0.8 b % and the “Action Degree” value ([1]; 960 g or ml/ha) was 87.2.
`S1SSSSSSS1` [Sulphur] was tested, and the “% infection on bunches” value [2] was 2.2 b %, the “% spreading on bunches” value [2] was 12.5 bd % and the “Action Degree” value [2] was 85.7.
